From patent US20240384268A1, “Oligonucleotides” (Hudson Institute of Medical Research, priority 2021, published 2024) come the findings set out here.

In the oligonucleotide strings, read from the 5' end, every base follows the letter of its sugar. An asterisk marks phosphorothioate; unmarked linkages are phosphodiester. Other units and linkages are bracketed, terminal groups are in braces. A string of capitals states the bases alone. d = 2'-deoxy (DNA); m = 2'-O-methyl

In this series the target is T1, human TLR9 (Homo sapiens, UniProt Q9NR96).
T1 construct: HA; host or cells: 293XL-hTLR9-HA (HEK293)
T1 sequence (Q9NR96 26-1032): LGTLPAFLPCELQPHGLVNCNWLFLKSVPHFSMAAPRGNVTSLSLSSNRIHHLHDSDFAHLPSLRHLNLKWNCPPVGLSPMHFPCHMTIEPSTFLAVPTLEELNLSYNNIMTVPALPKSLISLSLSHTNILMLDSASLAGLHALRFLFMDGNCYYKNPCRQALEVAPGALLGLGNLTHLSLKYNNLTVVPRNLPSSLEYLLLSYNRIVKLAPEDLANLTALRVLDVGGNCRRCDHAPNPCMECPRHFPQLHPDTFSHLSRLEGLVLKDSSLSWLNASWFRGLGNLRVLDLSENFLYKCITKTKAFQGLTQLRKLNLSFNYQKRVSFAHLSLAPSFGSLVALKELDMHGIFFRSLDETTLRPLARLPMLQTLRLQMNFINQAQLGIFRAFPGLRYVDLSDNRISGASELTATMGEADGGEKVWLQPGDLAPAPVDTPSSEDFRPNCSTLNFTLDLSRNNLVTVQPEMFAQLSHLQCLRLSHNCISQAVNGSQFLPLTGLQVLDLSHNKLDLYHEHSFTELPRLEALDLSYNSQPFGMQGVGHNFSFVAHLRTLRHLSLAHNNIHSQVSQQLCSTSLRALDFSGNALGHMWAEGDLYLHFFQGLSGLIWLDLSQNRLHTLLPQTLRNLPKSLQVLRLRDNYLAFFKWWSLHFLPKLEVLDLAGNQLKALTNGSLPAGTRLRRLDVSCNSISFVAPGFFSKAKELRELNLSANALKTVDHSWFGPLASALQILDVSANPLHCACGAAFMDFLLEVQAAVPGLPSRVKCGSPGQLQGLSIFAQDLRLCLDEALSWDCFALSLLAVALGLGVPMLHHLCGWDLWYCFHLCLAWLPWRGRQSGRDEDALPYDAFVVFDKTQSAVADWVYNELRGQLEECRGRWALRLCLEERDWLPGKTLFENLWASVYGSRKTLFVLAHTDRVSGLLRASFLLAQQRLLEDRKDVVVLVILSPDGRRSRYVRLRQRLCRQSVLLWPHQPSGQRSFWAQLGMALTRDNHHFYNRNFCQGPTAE
Put plainly: HEK-TLR9 NF-κB-luciferase reporter, ODN2006 stimulation. It counts as cell-based. Conditions: for TLR9 100 nM (averaged NF-κB-Luciferase level relative to ODN2006 condition): ASO 100 nM; for TLR9 100 nM (averaged NF-κB-Luciferase level relative to ODN2006 condition) / TLR9 500 nM (averaged NF-κB-Luciferase level relative to ODN2006 condition): relative to ODN2006 only, given as fraction; for TLR9 500 nM (averaged NF-κB-Luciferase level relative to ODN2006 condition): ASO 500 nM; for TLR9-500 nM: averaged NF-κB-Luciferase relative to ODN2006: HEK-TLR9, 500 nM ASO 45 min, then 200 nM ODN2006 overnight, percentage of ODN2006 only. A general note: In a reporter assay the amount or activity of a reporter protein is the signal.

“GTCCTTGCACGTGGCT (antisense; LNA-modified, pattern not given here) [EGFR-1015 LNA V1]”: the “TLR9 100 nM (averaged NF-κB-Luciferase level relative to ODN2006 condition)” value is 1.310 and the “TLR9 500 nM (averaged NF-κB-Luciferase level relative to ODN2006 condition)” value is 0.722.

On to “GTCTCTGGAGCTTCCT (antisense; LNA-modified, pattern not given here) [CAMSAP1-2456 LNA V1]”, for which the “TLR9 100 nM (averaged NF-κB-Luciferase level relative to ODN2006 condition)” value amounted to 0.935 and the “TLR9 500 nM (averaged NF-κB-Luciferase level relative to ODN2006 condition)” value is given as 0.272.

Regarding “GTCTTCATCGGCCCTG (antisense; LNA-modified, pattern not given here) [CAMSAP1-2113 LNA V1]”, the “TLR9 100 nM (averaged NF-κB-Luciferase level relative to ODN2006 condition)” value worked out at 0.797 and the “TLR9 500 nM (averaged NF-κB-Luciferase level relative to ODN2006 condition)” value is reported as 0.617.

Regarding “GTGATCTTGACATGCT (antisense; LNA-modified, pattern not given here) [EGFR-2790 LNA KL]”, the “TLR9 100 nM (averaged NF-κB-Luciferase level relative to ODN2006 condition)” value was 1.001 and the “TLR9 500 nM (averaged NF-κB-Luciferase level relative to ODN2006 condition)” value is given as 0.181.

“GTGATGGCCTCCCATC (antisense; LNA-modified, pattern not given here) [HPRT LNA-333 V1]”: the “TLR9 100 nM (averaged NF-κB-Luciferase level relative to ODN2006 condition)” value is 0.890 and the “TLR9 500 nM (averaged NF-κB-Luciferase level relative to ODN2006 condition)” value is 0.694.

For “TACTTTCCGAGGTGTC (antisense; LNA-modified, pattern not given here) [CAMSAP1-1739 LNA KL]”, the “TLR9 100 nM (averaged NF-κB-Luciferase level relative to ODN2006 condition)” value stood at 0.915 and the “TLR9 500 nM (averaged NF-κB-Luciferase level relative to ODN2006 condition)” value was found to be 0.356.

In the case of “TCCACAATCAAGACAT (antisense; LNA-modified, pattern not given here) [HPRT LNA-551 KL]”, the “TLR9 100 nM (averaged NF-κB-Luciferase level relative to ODN2006 condition)” value is on record as 0.851 and the “TLR9 500 nM (averaged NF-κB-Luciferase level relative to ODN2006 condition)” value came to 0.308.

Consider “TCCATACCCAAGGCAT (antisense; LNA-modified, pattern not given here) [CTNN2B-2446 LNA V1]”, for which the “TLR9 100 nM (averaged NF-κB-Luciferase level relative to ODN2006 condition)” value is listed as 1.075 and the “TLR9 500 nM (averaged NF-κB-Luciferase level relative to ODN2006 condition)” value amounted to 0.951.

As to “TCCGCCCAAAGGGAAC (antisense; LNA-modified, pattern not given here) [HPRT LNA-1027 KL]”, the “TLR9 100 nM (averaged NF-κB-Luciferase level relative to ODN2006 condition)” value is recorded as 0.876 and the “TLR9 500 nM (averaged NF-κB-Luciferase level relative to ODN2006 condition)” value came out at 0.599.

With “TCCTTGCACGTGGCTT (antisense; LNA-modified, pattern not given here) [EGFR-1014 LNA V1]”, the “TLR9 100 nM (averaged NF-κB-Luciferase level relative to ODN2006 condition)” value is reported as 1.152 and the “TLR9 500 nM (averaged NF-κB-Luciferase level relative to ODN2006 condition)” value was found to be 1.027.

Regarding “TCGTGGGGTCCTTTTC (antisense; LNA-modified, pattern not given here) [HPRT LNA-660 V1]”, the “TLR9 100 nM (averaged NF-κB-Luciferase level relative to ODN2006 condition)” value was determined as 0.461 and the “TLR9 500 nM (averaged NF-κB-Luciferase level relative to ODN2006 condition)” value came out at 0.462.

On to “TCTTCATCGGCCCTGC (antisense; LNA-modified, pattern not given here) [CAMSAP1-2112 LNA V1]”, for which the “TLR9 100 nM (averaged NF-κB-Luciferase level relative to ODN2006 condition)” value came out at 0.921 and the “TLR9 500 nM (averaged NF-κB-Luciferase level relative to ODN2006 condition)” value turned out to be 0.445.

On to “TCTTGGCTTCGTGGAG (antisense; LNA-modified, pattern not given here) [MB21D1-521 LNA V1]”, for which the “TLR9 100 nM (averaged NF-κB-Luciferase level relative to ODN2006 condition)” value turned out to be 1.251 and the “TLR9 500 nM (averaged NF-κB-Luciferase level relative to ODN2006 condition)” value amounted to 0.595.

On to “TGACAAAGATTCACTG (antisense; LNA-modified, pattern not given here) [HPRT LNA-1353 KL]”, for which the “TLR9 100 nM (averaged NF-κB-Luciferase level relative to ODN2006 condition)” value worked out at 0.819 and the “TLR9 500 nM (averaged NF-κB-Luciferase level relative to ODN2006 condition)” value is reported as 0.574.

As for “TGACTGTCTTGAGGGT (antisense; LNA-modified, pattern not given here) [MB21D1-1483 LNA KL]”, the “TLR9 100 nM (averaged NF-κB-Luciferase level relative to ODN2006 condition)” value amounted to 1.245 and the “TLR9 500 nM (averaged NF-κB-Luciferase level relative to ODN2006 condition)” value is recorded as 0.290.

Turning to “TGCTCCTCGGTCTCCC (antisense; LNA-modified, pattern not given here) [CAMSAP1-1850 LNA V1]”, the “TLR9 100 nM (averaged NF-κB-Luciferase level relative to ODN2006 condition)” value came to 0.548 and the “TLR9 500 nM (averaged NF-κB-Luciferase level relative to ODN2006 condition)” value is 0.535.

As to “TGGTCCACAACCCCTT (antisense; LNA-modified, pattern not given here) [MB21D1-697 LNA V1]”, the “TLR9 100 nM (averaged NF-κB-Luciferase level relative to ODN2006 condition)” value was 1.018 and the “TLR9 500 nM (averaged NF-κB-Luciferase level relative to ODN2006 condition)” value was 0.587.

Take “TGGTGGCCACCCATCT (antisense; LNA-modified, pattern not given here) [CTNN2B-2479 LNA V1]”: the “TLR9 100 nM (averaged NF-κB-Luciferase level relative to ODN2006 condition)” value turned out to be 1.136 and the “TLR9 500 nM (averaged NF-κB-Luciferase level relative to ODN2006 condition)” value came to 1.117.

“TGTCCTTGCACGTGGC (antisense; LNA-modified, pattern not given here) [EGFR-1016 LNA V1]”: the “TLR9 100 nM (averaged NF-κB-Luciferase level relative to ODN2006 condition)” value is given as 1.020 and the “TLR9 500 nM (averaged NF-κB-Luciferase level relative to ODN2006 condition)” value came to 0.853.

As to “TGTCTGGAAGCTTCCT (antisense; LNA-modified, pattern not given here) [CTNN2B-808 LNA V1]”, the “TLR9 100 nM (averaged NF-κB-Luciferase level relative to ODN2006 condition)” value was 1.320 and the “TLR9 500 nM (averaged NF-κB-Luciferase level relative to ODN2006 condition)” value was found to be 0.648.

For the substance “TTCAGGCGCTGCCTTG (antisense; LNA-modified, pattern not given here) [CAMSAP1-2709 LNA V1]”, the “TLR9 100 nM (averaged NF-κB-Luciferase level relative to ODN2006 condition)” value worked out at 1.202 and the “TLR9 500 nM (averaged NF-κB-Luciferase level relative to ODN2006 condition)” value is recorded as 0.494.

Turning to “mA*mA*mA*mG*mC*A*G*T*C*T*C*C*A*T*G*mU*mC*mC*mC*mA (mA*mA*mA*mG*mC*dA*dG*dT*dC*dT*dC*dC*dA*dT*dG*mU*mC*mC*mC*mA; antisense) [[CDKN2B-AS1]2237]”, the “TLR9-500 nM: averaged NF-κB-Luciferase relative to ODN2006” value was 87.17%.

For “mA*mA*mG*mC*mA*G*T*C*T*C*C*A*T*G*T*mC*mC*mC*mA*mG (mA*mA*mG*mC*mA*dG*dT*dC*dT*dC*dC*dA*dT*dG*dT*mC*mC*mC*mA*mG; antisense) [[CDKN2B-AS1]2236]”, the “TLR9-500 nM: averaged NF-κB-Luciferase relative to ODN2006” value worked out at 69.71%.

Regarding “mA*mG*mC*mA*mG*T*C*T*C*C*A*T*G*T*C*mC*mC*mA*mG*mG (AGCAGTCTCCATGTCCCAGG; antisense; sugars from the 5' end m5 d10 m5, all phosphorothioate, methylation of C not given here) [[CDKN2B-AS1]2235]”, the “TLR9-500 nM: averaged NF-κB-Luciferase relative to ODN2006” value is 73.18%.

For the substance “mA*mG*mU*mC*mU*C*C*A*T*G*T*C*C*C*A*mG*mG*mC*mC*mU (mA*mG*mU*mC*mU*dC*dC*dA*dT*dG*dT*dC*dC*dC*dA*mG*mG*mC*mC*mU; antisense) [[CDKN2B-AS1]2232]”, the “TLR9-500 nM: averaged NF-κB-Luciferase relative to ODN2006” value came to 122.20%.

With “mA*mG*mU*mG*mG*C*A*C*A*T*A*C*C*A*C*mA*mC*mC*mC*mU (AGUGGCACATACCACACCCU; antisense; sugars from the 5' end m5 d10 m5, all phosphorothioate, methylation of C not given here) [[CDKN2B-AS1]495]”, the “TLR9-500 nM: averaged NF-κB-Luciferase relative to ODN2006” value was determined as 86.07%.

In the case of “mA*mU*mU*mU*mC*C*A*C*A*T*G*C*C*C*A*mG*mU*mG*mU*mU (AUUUCCACATGCCCAGUGUU; antisense; sugars from the 5' end m5 d10 m5, all phosphorothioate, methylation of C not given here) [[CDKN2B-AS1]626]”, the “TLR9-500 nM: averaged NF-κB-Luciferase relative to ODN2006” value is 63.65%.

As for “mC*mA*mG*mU*mC*T*C*C*A*T*G*T*C*C*C*mA*mG*mG*mC*mC (mC*mA*mG*mU*mC*dT*dC*dC*dA*dT*dG*dT*dC*dC*dC*mA*mG*mG*mC*mC; antisense) [[CDKN2B-AS1]2233]”, the “TLR9-500 nM: averaged NF-κB-Luciferase relative to ODN2006” value came to 55.13%.

Turning to “mC*mA*mG*mU*mG*T*T*T*T*T*A*A*T*T*T*mU*mG*mU*mA*mG (mC*mA*mG*mU*mG*dT*dT*dT*dT*dT*dA*dA*dT*dT*dT*mU*mG*mU*mA*mG; antisense) [[CDKN2B-AS1]613]”, the “TLR9-500 nM: averaged NF-κB-Luciferase relative to ODN2006” value was 92.59%.
